Here are results for twelve molecules from ChEMBL document CHEMBL5661943, “ASAP - In vitro antiviral effect” (2024).

Values joined by “and” are separate entries in the source; they are usually repeats but may differ in a detail not shown here. Identical values can stand only once.

Experiment [1] deals with dengue virus type 2. Description: Functional CPE-based assay to measure dose dependent changes in antiviral-drug inhibitory efficacy against Dengue virus type 2 New Guinea C in Huh7 cells. Cells are treated with antiviral candidates that are serially diluted. EC50 is reported via analysis of MTT/MTS assay as a readout of CPE. The assay has been performed by National Institute of Allergy and Infectious Diseases. In kind it is organism-based, Homo sapiens. To be noted: Huh-7.

Experiment [2] has as its system Zika virus. In words: EC50 is reported via analysis of immunofluorescence staining. The assay has been performed by Icahn School of Medicine at Mount Sinai. In kind it is functional, organism-based, Chlorocebus sabaeus, VeroE6/TMPRSS2.
In experiment [3] the test system is dengue virus type 2. Description: Functional immunofluorescence assay to measure dose dependent changes in antiviral-drug inhibitory efficacy against Dengue virus type 2 Thailand/16681/84 in Vero E6/TMPRSS2 cells (cotreated with P-gp inhibitor, Elacridar). Cells are treated with antiviral candidates that are serially diluted, following infection, cells are fixed. EC50 is reported via analysis of immunofluorescence staining. The assay has been performed by Icahn School of Medicine at Mount Sinai. To be noted: for EC90: Baseline response 0 %, Maximum response 100 %, P-gp concentration 2 uM, P-gp inhibitor Elacidar. In kind it is organism-based, Chlorocebus sabaeus, VeroE6/TMPRSS2.

Experiment [4] has as its system Zika virus. Description: Functional CPE-based assay to measure dose dependent changes in antiviral-drug inhibitory efficacy against Zika virus MR766 in Vero E6 miRFP670 cells. Cells are treated with antiviral candidates that are serially diluted. EC50 is reported via analysis of MTS assay as a readout of CPE. The assay has been performed by KU Leuven. It is filed as organism-based, Chlorocebus sabaeus, Vero C1008. Conditions: Zika virus.

The test system of experiment [5] is Zika virus. Description: Functional immunofluorescence assay to measure dose dependent changes in antiviral-drug inhibitory efficacy against Zika virus PRVABC59 in Vero E6/TMPRSS2 cells. Cells are treated with antiviral candidates that are serially diluted, following infection, cells are fixed. EC50 is reported via analysis of immunofluorescence staining. The assay has been performed by Icahn School of Medicine at Mount Sinai. It is filed as organism-based, Chlorocebus sabaeus.

In experiment [6] the test system is dengue virus type 2. Description: Functional immunofluorescence assay to measure dose dependent changes in antiviral-drug inhibitory efficacy against Dengue virus type 2 Thailand/16681/84 in Vero E6/TMPRSS2 cells. Cells are treated with antiviral candidates that are serially diluted, following infection, cells are fixed. EC50 is reported via analysis of immunofluorescence staining. The assay has been performed by Icahn School of Medicine at Mount Sinai. To be noted: for EC50: VeroE6/TMPRSS2. In kind it is organism-based, Chlorocebus sabaeus.

In experiment [7] the test system is dengue virus type 2. Description: Functional assay to measure dose dependent changes in antiviral-drug inhibitory efficacy against Dengue virus type 2 New Guinea C in Vero E6 miRFP670 cells (cotreated with P-gp inhibitor, CP100356). Cells are treated with antiviral candidates that are serially diluted, following infection, cells are fixed. EC50 is reported via analysis of fluorescence intensity using high-content imager. The …. It is filed as organism-based, Chlorocebus sabaeus, Vero C1008. To be noted: for EC90: Baseline response 0 %, Maximum response 100 %, P-gp concentration 500 nM, P-gp inhibitor CP100356.

Experiment [8] relates to Zika virus. In words: Functional CPE-based assay to measure dose dependent changes in antiviral-drug inhibitory efficacy against Zika virus MR766 in Vero E6 miRFP670 cells (cotreated with P-gp inhibitor, CP100356). Cells are treated with antiviral candidates that are serially diluted. EC50 is reported via analysis of MTS assay as a readout of CPE. The assay has been performed by KU Leuven. In kind it is organism-based, Chlorocebus sabaeus, Vero C1008. Conditions: Zika virus, Vero C1008.

The molecule `CCCCCC(=O)N[C@H](C(=O)NCc1cccc(CN)c1)c1ccc(OCc2ccccc2)cc1` showed an EC50 with dengue virus type 2 [1] of over 18 µM.
Consider `CCCCCC(=O)N[C@H](C(=O)Nc1ccc2[nH]ncc2c1)c1ccc(OCc2ccccc2)cc1`, for which the EC50 with dengue virus type 2 [1] worked out at 6.2 µM.
On the same count and under the same terms, the value for `CCCCCC(=O)N[C@H](C(=O)Nc1ccc(C(N)=O)cc1)c1ccc(OCc2ccccc2)cc1` was over 32 µM; that for `NCc1ccc(-c2ncc(OCC3CCNCC3)nc2-c2ccc(C3CCOCC3)cc2)cc1` was over 32 µM; that for `CCCCCC(=O)N[C@H](C(=O)N1CCCCC1)c1ccc(OCc2ccccc2)cc1` was over 19 µM.
On the same count and under the same terms, with `NCc1cccc(NC(=O)C[C@@H](NC(=O)OCc2ccccc2)c2ccc(OCc3ccccc3)cc2)c1` the figure was over 6.1 µM.
On the same count and under the same terms, with `NCc1cccc(NC(=O)[C@@H](NC(=O)OCc2ccccc2)c2ccc(OCc3ccccc3)cc2)c1` the figure was over 18 µM; with `COc1cc(Cc2c(-c3ccc(F)cc3)noc2C)nc(N2CCNCC2)n1`, over 18 µM.
Consider `CC[C@@H](Cc1nnn[nH]1)c1ccc(NC(=O)c2cc(Cl)cc(NC(=O)OCc3ccccc3)c2)cc1`, for which the EC50 in the experiment on Zika virus [2] (Zika virus, VeroE6/TMPRSS2) is 1.93 µM; in the experiment with dengue virus type 2 [3] (Dengue virus, VeroE6/TMPRSS2), 10.4 µM; with Zika virus [4] (Vero C1008), over 50 µM; in the experiment with Zika virus [5] (VeroE6/TMPRSS2), over 50 µM; in the experiment with dengue virus type 2 [6], over 5.56 µM; in the experiment with dengue virus type 2 [7] (Dengue virus, Vero C1008), 43.5 µM. Besides, the EC90 with Zika virus [2] (Zika virus, VeroE6/TMPRSS2) is 2.9 µM; in the experiment on dengue virus type 2 [3] (Dengue virus, VeroE6/TMPRSS2, Hill slope -0.442, Maximum measured 140.797 %, Minimum measured 47.356 %, R squared 0.351) it was over 16.7 µM; in the experiment on Zika virus [4] (Vero C1008, Baseline response 0 %, Hill slope 5.649, Maximum measured 5.74 %, Maximum response 100 %, Minimum measured -1.447 %, R squared 0.24) it was over 50 µM; in the experiment with Zika virus [5] (VeroE6/TMPRSS2) it was over 50 µM; in the experiment with dengue virus type 2 [6] (VeroE6/TMPRSS2, Baseline response 0 %, Hill slope -0.186, Maximum measured 93.084 %, Maximum response 100 %, Minimum measured 36.595 %, R squared 0.076) it was over 5.56 µM; in the experiment on dengue virus type 2 [7] (Dengue virus, Vero C1008, Hill slope -24.458, Maximum measured 108.477 %, Minimum measured 3.247 %, R squared 0.952), 47.6 µM.
With `NCCc1cccc(NC(=O)[C@H]2[C@H]3CCCCC[C@H]3[C@H]2NC(=O)OCc2ccccc2)c1`, the EC50 with Zika virus [2] (Zika virus, VeroE6/TMPRSS2) was 1.51 µM; in the experiment with dengue virus type 2 [3] (Dengue virus, VeroE6/TMPRSS2), 0.852 µM; in the experiment on Zika virus [4] (Vero C1008), over 50 µM; in the experiment with Zika virus [5] (VeroE6/TMPRSS2), 16.3 µM; in the experiment with dengue virus type 2 [6] it was over 1.85 µM; in the experiment with dengue virus type 2 [7] (Dengue virus, Vero C1008) it was 8.83 µM. For the same molecule, the EC90 is 27.9 µM in the experiment with Zika virus [2] (Zika virus, VeroE6/TMPRSS2); over 1.85 µM in the experiment on dengue virus type 2 [3] (Dengue virus, VeroE6/TMPRSS2, Hill slope -0.607, Maximum measured 105.284 %, Minimum measured 41.503 %, R squared 0.471); over 50 µM in the experiment with Zika virus [4] (Vero C1008, Baseline response 0 %, Hill slope 0.101, Maximum measured 6.245 %, Maximum response 100 %, Minimum measured -3.134 %, R squared 0.013); 16.9 µM in the experiment with Zika virus [5] (VeroE6/TMPRSS2, Baseline response 0 %, Hill slope -67.816, Maximum measured 128.901 %, Maximum response 100 %, Minimum measured 6.251 %, R squared 0.855); over 1.85 µM with dengue virus type 2 [6] (VeroE6/TMPRSS2, Maximum measured 147.779 %, Minimum measured 82.782 %); 13 µM with dengue virus type 2 [7] (Dengue virus, Vero C1008, EC90 CI (lower) 4.071 uM, EC90 CI (upper) 8.838 uM, Hill slope -5.677, Maximum measured 107.479 %, Minimum measured 11.429 %, R squared 0.889).
Regarding `Cc1ccc(NC(=O)c2cc(Cl)cc(NC(=O)OCc3ccccc3)c2)cc1CN`, the EC90 in the experiment with Zika virus [2] (Zika virus, VeroE6/TMPRSS2, Maximum measured 108.754 %, Minimum measured 39.323 %, P-gp concentration 2 uM, P-gp inhibitor Elacidar) was over 5.56 µM; in the experiment on Zika virus [2] (Zika virus, VeroE6/TMPRSS2, Baseline response 0 %, Hill slope -0.897, Maximum measured 104.466 %, Maximum response 100 %, Minimum measured 2.423 %, P-gp concentration 2 uM, R squared 0.573, P-gp inhibitor Elacidar) it was over 5.56 µM; with dengue virus type 2 [3] (Dengue virus, VeroE6/TMPRSS2, Hill slope -0.692, Maximum measured 108.544 %, Minimum measured 11.231 %, R squared 0.808) it was over 5.56 µM; in the experiment on Zika virus [4] (Vero C1008, Baseline response 0 %, Hill slope 16.084, Maximum measured 41.192 %, Maximum response 100 %, Minimum measured -3.993 %, R squared 0.961), over 3.12 µM; in the experiment on Zika virus [5] (VeroE6/TMPRSS2, Maximum measured 627.464 %, Minimum measured 75.729 %), over 50 µM; in the experiment with dengue virus type 2 [6] (VeroE6/TMPRSS2, Baseline response 0 %, Hill slope -0.25, Maximum measured 56.738 %, Maximum response 100 %, Minimum measured 21.854 %, R squared 0.324) it was over 5.56 µM. Besides, the EC90 in the experiment on Zika virus [8] (Baseline response 0 %, Hill slope 6.556, Maximum measured 76.39 %, Maximum response 100 %, Minimum measured 1.967 %, P-gp concentration 500 nM, R squared 0.915, P-gp inhibitor CP100356) was over 3.12 µM; in the experiment with dengue virus type 2 [7] (EC90 CI (lower) 0 uM, EC90 CI (upper) Could not be calculated, confidence interval too large, Hill slope -15.095, Maximum measured 108.434 %, Minimum measured 1.527 %, R squared 0.917), 3.71 µM; in the experiment with dengue virus type 2 [7] (Hill slope -19.938, Maximum measured 107.168 %, Minimum measured 6.341 %, R squared 0.876), 1.73 µM. Further, the EC50 in the experiment on Zika virus [2] (veroe6/tmprss2) is 0.903 µM and > 5.56 µM; in the experiment on dengue virus type 2 [3] (Dengue virus, VeroE6/TMPRSS2) it was 0.532 µM; in the experiment on Zika virus [4] (Vero C1008), over 3.12 µM; in the experiment on Zika virus [5] (VeroE6/TMPRSS2), over 50 µM; in the experiment on dengue virus type 2 [6] it was under 0.023 µM; with Zika virus [8] it was 2.61 µM. Also, the EC50 in the experiment on dengue virus type 2 [7] (vero c1008) is 3.21 µM and 1.55 µM.
In the case of `Cc1[nH]c2ccccc2c1CN1CCC(c2c[nH]c3ncccc23)CC1`, the 90% effect concentration (EC90) was 22.1 µM in the experiment on Zika virus [2] (Baseline response 0 %, EC90 CI (lower) 0.367 uM, EC90 CI (upper) 8.175 uM, Hill slope -1.726, Maximum measured 163.583 %, Maximum response 100 %, Minimum measured 5.054 %, P-gp concentration 2 uM, R squared 0.694, P-gp inhibitor Elacidar); over 10 µM with Zika virus [2] (Baseline response 0 %, Hill slope -0.27, Maximum measured 107.973 %, Maximum response 100 %, Minimum measured 29.852 %, P-gp concentration 2 uM, R squared 0.23, P-gp inhibitor Elacidar); over 16.7 µM in the experiment with dengue virus type 2 [3] (Hill slope -0.694, Maximum measured 115.257 %, Minimum measured 6.241 %, R squared 0.775); over 10 µM in the experiment with dengue virus type 2 [3] (Dengue virus, VeroE6/TMPRSS2, Hill slope -0.066, Maximum measured 94.332 %, Minimum measured 44.366 %, R squared 0.022); 7.41 µM in the experiment on Zika virus [4] (Vero C1008); over 50 µM in the experiment with Zika virus [5] (VeroE6/TMPRSS2, Baseline response 0 %, Hill slope -0.459, Maximum measured 94.623 %, Maximum response 100 %, Minimum measured 4.56 %, R squared 0.472). Also, the EC90 in the experiment with dengue virus type 2 [6] (VeroE6/TMPRSS2, Baseline response 0 %, Hill slope -0.265, Maximum measured 113.218 %, Maximum response 100 %, Minimum measured 41.507 %, R squared 0.203) was over 16.7 µM; with dengue virus type 2 [7] (Dengue virus, Vero C1008, EC90 CI (lower) 3.837 uM, EC90 CI (upper) 5.899 uM, Hill slope -5.588, Maximum measured 107.944 %, Minimum measured 3.436 %, R squared 0.982), 10.5 µM. For the same molecule, the EC50 with Zika virus [2] (Zika virus, VeroE6/TMPRSS2) is over 10 µM; in the experiment with Zika virus [2] (veroe6/tmprss2) it was 6.19 µM; in the experiment on dengue virus type 2 [3] (veroe6/tmprss2), > 10 µM and 3.01 µM; in the experiment on Zika virus [4] (Vero C1008) it was 6.51 µM; with Zika virus [5] (VeroE6/TMPRSS2), 13.1 µM; in the experiment with dengue virus type 2 [6], over 16.7 µM. Moreover, the concentration giving a half-maximal response (EC50) in the experiment on dengue virus type 2 [7] (Dengue virus, Vero C1008) is 7.05 µM.
